Target: T1, KDM4A N198A mutant (Homo sapiens, UniProt O75164, N198A)
T1 sequence (O75164 1-1064 N198A): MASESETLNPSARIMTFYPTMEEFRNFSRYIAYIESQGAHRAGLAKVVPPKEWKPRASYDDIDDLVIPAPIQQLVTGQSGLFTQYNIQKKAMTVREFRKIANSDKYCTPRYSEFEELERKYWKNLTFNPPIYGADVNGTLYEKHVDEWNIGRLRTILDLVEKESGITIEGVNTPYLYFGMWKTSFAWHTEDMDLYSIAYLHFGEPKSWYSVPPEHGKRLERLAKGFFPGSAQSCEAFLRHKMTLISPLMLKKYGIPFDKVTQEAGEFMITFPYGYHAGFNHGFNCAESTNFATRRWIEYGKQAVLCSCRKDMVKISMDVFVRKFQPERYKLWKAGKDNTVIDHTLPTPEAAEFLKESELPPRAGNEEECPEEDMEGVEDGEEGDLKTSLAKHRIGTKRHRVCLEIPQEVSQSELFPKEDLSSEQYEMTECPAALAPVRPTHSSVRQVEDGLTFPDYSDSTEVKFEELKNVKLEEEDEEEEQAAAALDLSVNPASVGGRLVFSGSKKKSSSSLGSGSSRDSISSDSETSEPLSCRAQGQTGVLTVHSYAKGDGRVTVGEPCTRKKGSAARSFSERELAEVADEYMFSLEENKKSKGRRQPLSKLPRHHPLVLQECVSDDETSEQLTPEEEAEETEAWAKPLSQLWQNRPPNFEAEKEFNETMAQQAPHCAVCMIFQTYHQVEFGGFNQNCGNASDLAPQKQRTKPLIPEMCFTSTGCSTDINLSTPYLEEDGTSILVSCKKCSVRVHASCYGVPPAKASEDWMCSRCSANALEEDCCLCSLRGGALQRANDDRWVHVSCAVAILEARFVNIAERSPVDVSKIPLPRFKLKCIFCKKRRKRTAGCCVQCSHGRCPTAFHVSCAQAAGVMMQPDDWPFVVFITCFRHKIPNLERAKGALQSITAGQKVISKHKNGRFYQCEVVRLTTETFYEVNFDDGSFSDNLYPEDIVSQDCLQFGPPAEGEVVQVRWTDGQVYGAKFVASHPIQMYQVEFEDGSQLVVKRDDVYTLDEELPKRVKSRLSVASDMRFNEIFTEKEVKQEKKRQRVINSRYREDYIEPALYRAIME
Assay: MALDI demethylase assay, H3K9me3 substrate peptide, N198A mutant
Assay type: biochemical

[1] = scaffold test under the optimized assay conditions (50 μM 2KG), Figure S7

With `O=C(O)c1ccc(O)c2ncccc12` [IOX1, 5-carboxy-8-hydroxyquinone] the “inhibition of demethylase activity” value [1] was “inhibited”.

`O=C(O)CNC(=O)C(=O)O` [compound 2, N-oxalylglycine] was tested, and the “inhibition of demethylase activity” value (100 μM compound, 50 μM 2KG, MALDI-MS) was “significantly inhibited” and the “inhibition of demethylase activity” value [1] was “inhibited”.
